Structures are written as SMILES.

One may read the melting point as the temperature of the solid-liquid transition. Take `COC(=O)CCCc1cc2nc(Cl)ccc2n1S(=O)(=O)c1ccc(-n2cccn2)cc1`: the melting point lay in the range of 122 to 124 °C. The figure for `CC(c1ccc(Cl)cc1Cl)n1nc(C(=O)O)cc1-c1ccc(Cl)cc1` (centres undefined) is 80 °C; for `CCc1nc2c(N)nc3cccnc3c2n1CC1(O)CCN(S(C)(=O)=O)CC1` it is over 255 °C; for `COc1ccc2c3c1OC1C(O)C(C)(C)CC4C(C2)N(C)CCC341` (centres undefined) it is over 265 °C. The compound `CCOC(=O)c1ccc(COCc2csc3nc(C(=O)NCc4ccnc(OCC5CCOC5)c4)[nH]c(=O)c23)cc1` (centres undefined) returned a melting point of 225 °C. The figure for `CCOc1noc(-c2nc[nH]n2)c1C` is 194 to 196 °C; for `COc1cccc2c1CCC2C(=O)O` (centres undefined) it is 117 to 118 °C; for `O=C1Nc2ccccc2S(=O)(=O)N1C1CCN(Cc2ccccc2)CC1` it is 169 to 171 °C. The figure for `CS(=O)(=O)c1ccc(-c2ncccc2C(=O)c2cccc(F)c2)cc1` is 157 to 159 °C; for `COc1ccc(C(c2ccc(OC)cc2)c2cnccc2C(=O)NC23CC4CC(CC2C4)C3)cc1` it is 110 to 112 °C. With `O=C(c1cc2ccccc2[nH]1)N1CCCCC1`, the melting point lay within 213 to 214 °C. The figure for `CCn1c(C=O)cnc1[N+](=O)[O-]` is 38 to 40 °C; for `CCON1CCC(C#N)(NC(=O)Cc2c(C)cc(C)cc2C)CC1` it is 194 to 195 °C; for `CC(=O)NCC1CCN(CC2COc3ccccc3O2)CC1` (centres undefined) it is 138 °C. The figure for `O=S1(=O)c2ccccc2Oc2cc(O)ccc21` is 213 to 215 °C.

The compound `CC(COc1ccccc1)NCC(O)COc1cccc(O)c1` (centres undefined) gave a melting point of 124 to 127 °C.

In turn, `CCc1cc(CC)c2sc3ccccc3c(=O)c2c1` yielded a melting point of 60 °C.

The compound `CC(Cc1ccncc1)(NC(=O)OC1C2CC3CC(C2)CC1C3)C(=O)NCCc1ccccc1` (centres undefined) returned a melting point of 176 °C. The figure for `CN1C(=C(C#N)C#N)Oc2ccccc21` is 198 to 200 °C; for `O=C1c2ccccc2C(=O)N1CC(Br)(CBr)c1ccccc1` (centres undefined) it is 162 to 163 °C; for `COc1ccc(-c2c(-c3cc(OC)c(OC)c(OC)c3)ncn2-c2ccccc2)cc1O` it is 176 to 177 °C. To `COc1ccc2c(C)cccc2c1C(F)(F)F` belongs 70 to 71 °C; to `CCC(C(=O)O)c1ccc2c(=O)c3ccccc3ccc2c1` (centres undefined), 147 to 148 °C. The figure for `NC(=O)C1Cc2c([nH]c3ccccc23)CN1` (centres undefined) is 212 to 216 °C; for `C=C(c1ccsc1C(=O)O)c1cc(C(C)(C)C)cc2c1CCC2(C)C` it is 146 to 148 °C; for `CC(=O)Nc1nc2ccc(S(=O)(=O)n3c(CCC(=O)O)cc4cc(C(F)(F)F)ccc43)cc2s1` it is 290 to 292 °C. Consider `Cc1cc(C)c(C2C(=O)NC3(CCN(N(C)C)CC3)C2=O)c(C)c1` (centres undefined), for which the melting point lay in the range of 237 to 241 °C. With `CCCOc1ccc(C(O)CN2CCOCC2)cc1-c1nc2c(CCC)nn(C)c2c(=O)[nH]1` (centres undefined), the melting point fell in the range of 104 to 105 °C. To `COC(=O)c1ccccc1-n1c(CCl)nc2ccc(Br)cc2c1=O` belongs 235 to 237 °C. The figure for `CCOC(=O)c1cnn2c(-c3ccccc3C(F)(F)F)ccnc12` is 148 to 149 °C. `COc1cc2c(c(OC)c1OC)C1=C(CCC1)C(=O)CC2`: the melting point lay within 101 to 102 °C. For `C=C(c1ccccc1)c1ccc(N(C)C)cc1`, the melting point was 51 to 52 °C. The figure for `CCOC(=O)c1ccc(/C=C(\C)c2ccc3c(c2)C(C)(C)CCO3)cc1` is 86 to 87 °C. For the compound `CC(C)(C)c1cccc(S(=O)(=O)n2c(C(O)c3ccc(C(=O)O)s3)cc3cc(C(F)(F)F)ccc32)c1` (centres undefined), the melting point was 90 °C. On to `CC(O)(C(=O)O)c1cccc(OCc2ccc3ccccc3c2)c1` (single isomer, unassigned; (-)), for which the melting point is 104 to 106 °C. In turn, `CCOC(=O)C1(N)C=CNN1c1cc(Cl)cc(Cl)c1` (centres undefined) displayed a melting point of 157 to 158 °C. The figure for `COC(=O)c1cscc1N=C=S` is 93 to 95 °C.

With `O=C(c1cc2cccc(NS(=O)(=O)c3cccs3)c2[nH]1)N(Cc1ccccc1)Cc1ccccc1`, the melting point was in the range of 198 to 199 °C. The figure for `COc1ccc(C(=O)CSCc2ccncc2)cc1` is 64 to 65 °C. The figure for `Nc1ccc(-c2noc(-c3cnn4c(C(F)F)cc(-c5ccc(C(F)(F)F)c(OCC(F)(F)F)c5)nc34)n2)cn1` is 285 °C; for `N[C@@]1(C(=O)O)C[C@H](Oc2ccc(Cl)cc2Cl)[C@H]2[C@H](C(=O)O)[C@H]21` (relative stereo) it is over 250 °C. In the case of `ClC(Cl)(Cl)c1nc2ccccc2o1`, the melting point was determined as 102 °C. The figure for `CN(C)C1CCN(c2nc(N3CCOCC3)c3ncnc(N(Cc4ccccc4)Cc4ccccc4)c3n2)CC1` is 163 °C.

Compound `CN(C)S(=O)(=O)c1ccc2c(c1)CC(N1CCN(CCN3CCOC3=O)CC1)c1ccccc1S2` (centres undefined) came in with a melting point of 164 to 165 °C. To `CCC(=Cc1ccc(C(=O)O)cc1Cl)[N+](=O)[O-]` belongs 179 to 180 °C; to `O=C(NCC1CCNCC1)c1ccccc1`, 119 °C. The figure for `Cc1nc2cnc3ccccc3c2s1` is 95.5 to 97.5 °C; for `CC(C#N)c1cc([N+](=O)[O-])ccc1F` (centres undefined) it is 55 to 56 °C. The figure for `C1=CC(c2ccccc2)(c2ccccc2)CCS1` is 78 °C; for `Cc1cccc(C)c1NC(=O)CN1CCN2C(C1)C(=O)N(C(C)C)C2(C)C` (centres undefined) it is 155 °C. Take `CC(C)Nc1cccnc1N1CCN(C(=O)c2ccc(C(=O)N[C@H](CO)c3ccccc3)cc2)CC1`: the melting point fell in the range of 93 to 95 °C.

`O=c1[nH]c(N2CCN(CCCCN3CCCCC3)CC2)cc2ccc(Br)cc12`: the melting point fell in the range of 211 to 212 °C.

Compound `CCc1ccccc1CCC(=O)O` yielded a melting point of 87 to 91 °C. To `NC(=O)c1nc(-c2cccc(O)c2)nc2c1[nH]c(=O)n2-c1cccc(F)c1` belongs over 375 °C; to `CC(C)N1Cc2ccccc2P1(=O)c1ccccc1` (centres undefined), 92 to 94 °C; to `Cc1cc(C)c(-c2ccnc(Nc3ccc(F)cc3)n2)[nH]1`, 168 to 172 °C.

As to `Fc1ccccc1C(c1ccccc1)n1cccc1` (centres undefined), the melting point is 81 to 82.5 °C. The figure for `CCCCCCCCCCCCCCCc1cccc(OC)c1C(=O)O` is 65 to 72 °C. In the case of `CCOC(=O)N1CCN(CCCN2C(=O)c3ccccc3C2=O)CC1`, the melting point was in the range of 77 to 84 °C.

As for `COc1ccc(C2(c3cccc(C)n3)OCCCO2)cc1OC`, the melting point was in the range of 124 to 126 °C. To `COC(=O)CCC12CCC(=O)N1C(=O)CC2` belongs 110 to 112 °C; to `Nc1ccc2nc3c(=O)[nH][nH]c(=O)c3c(O)c2c1`, 219 to 221 °C; to `CCc1cccc(C2(O)C3CC4CC(C3)CC2C4)c1` (centres undefined), 63 to 65 °C. The figure for `O=C1CCCN1C(c1ccccc1Cl)N1CCN(c2ncccn2)CC1` (centres undefined) is 166 to 177 °C; for `ClC1=NN(c2ccccc2)CC1` it is 92 to 93 °C. To `CCOC(=O)C1=C(N)NC(N)=C(C(=O)OCC)C1c1cc([N+](=O)[O-])ccc1Cl` belongs 130 °C; to `O=S(=O)(c1ccc(O)cc1)c1ccc2cc(Br)ccc2c1`, 178 to 180 °C. `Cc1ccc2nc(-c3ccccc3)nc(Cl)c2c1`: the melting point was in the range of 111 to 113 °C.

Turning to `CC(C)(CC(O)(Cn1ccc(=O)c2ccccc21)C(F)(F)F)c1cc(F)ccc1OC(F)F` (centres undefined), the melting point is 150 to 155 °C. Regarding `CCCCCCCCCCCCCCCCCCOc1cc(OCCCCCCc2cccc(O)c2O)cc(C(=O)OC)c1`, the melting point lay in the range of 82 to 84 °C. `CC1CN(c2ccc(Cl)cc2)N=C1NC(=O)C(F)(F)F` (centres undefined) gave a melting point of 181 to 183 °C. To `CCCCN1CC=C(c2cccc3c2CC(=O)N3)CC1` belongs 110 to 111 °C; to `O=C1CC2CC[C@@H](CN3C(=O)c4ccccc4C3=O)OC2O1` (some centres undefined), 186 to 189 °C. To `CCN(Cc1c(F)cccc1Cl)c1c([N+](=O)[O-])cc(C(F)(F)F)c(Cl)c1[N+](=O)[O-]` belongs 118 to 125 °C; to `COC(=O)[C@H](CC(=O)OC(C)(C)C)NC(=O)c1cccc(NC(=O)c2ccc(C#N)cc2)c1`, 83 to 84 °C. To `Cc1c(CCC(=O)O)oc2cccc(O)c12` belongs 114 to 117 °C. As for `CCCN(CCC)C(=O)C(CCC(=O)OC)NC(=O)C(C(=O)OC)=C1SC=CS1` (centres undefined), the melting point was in the range of 115 to 117 °C. `O=C(N[C@H](Cc1ccc(C(F)(F)F)cc1)[C@@H](O)c1ccc(F)cc1)c1ccc(CO)c2ccccc12` (racemic) displayed a melting point of 202 to 203 °C. In turn, `NCCC(O)(c1ccc(Cl)cc1)c1ccc(-c2ccc(Cl)cc2)cc1` (centres undefined) displayed a melting point of 131 to 132 °C. `O=C(NC1CC1)c1ccc(F)c2c1CC(N(CCCc1c[nH]c3ccc(F)cc13)C1CCC1)CO2` (centres undefined): the melting point was found to be 134 °C. As for `CCOC(=O)CCCCN1CCc2ccc(NS(=O)(=O)c3ccccc3)cc2C1`, the melting point fell in the range of 120 to 121 °C. The figure for `CN(C)CCNS(=O)(=O)c1cccc(NC(=O)c2cnn3c(C(F)F)cc(-c4ccc(C(F)(F)F)cc4)nc23)c1` is 184 °C; for `CCn1ncc2c3ncn(CCC(C)C)c(=O)c3cnc21` it is 165 to 167 °C; for `Cc1ccc2c(c1)N(CC(=O)c1ccco1)C(=O)C(NC(=O)Nc1cccc(C(=O)O)c1)CN2C(=O)C(C)(C)C` (centres undefined) it is 202 to 204 °C. In the case of `CCCc1c(C(C)C)nc(C(C)C)c(CO)c1-c1ccc(F)cc1`, the melting point lay within 49 to 54 °C. The figure for `CCCCN(CC(=O)N1c2ccccc2N(CC)C(=O)c2cnc(-c3ccccc3)nc21)C(C)(C)C` is 70 to 72 °C; for `COc1cc(C=O)c(OC)c2ccccc12` it is 120 to 123 °C; for `O=C(OC1CCCCO1)C(c1ccccc1)(c1ccccc1)c1ccccc1` (centres undefined) it is 115 °C. The figure for `Cc1c(C(=O)O)nn(-c2ccc(Cl)cc2Cl)c1-c1ccc(Cl)cc1` is 211 °C.

For the origin of these results see a melting point compilation (Tetko et al.; mined from patent text by program, amines drawn as free bases though some values may be those of a salt).
